Laboratory results reported in paper PMC11973282, “RAS70 peptide targets multiforme glioblastoma by binding to the plasma membrane heat shock protein HSP70” (Frontiers in Oncology, 2025).

Columns and labels:
[1] = tested on: GL261 glioma; design: species or system C57BL/6 mice; details: mouse, in vivo
Method: The animals were anesthetized with a combination of Zoletil 100 (Virbac, France) and Rometar (Bioveta, Czech Republic). Rat glioma C6 (2х10^6) and mice glioma GL261 (1х10^6) cells were injected intracranially into the area of nucl. caudatus dexter.
For evaluation of the tumor retention of the RAS70 peptide in GL261 glioma-bearing mice the animals following tumor cells injection were randomly assigned to the study groups (6 animals each) as follows (1): control group – PBS i.v. injection via tail vein (100 μL) (2); i.v. administration of […] peptide (100 μl, 2.5 mg/kg) (3); i.v. administration of NGL-RGD-sCy7.5 peptide (100 μl, 2.5 mg/kg) (4); i.v. administration of TKD-sCy7.5 peptide (100 μl, 2.5 mg/kg) (5); i.v. administration of […] peptide (100 μl, 2.5 mg/kg). Following clinical manifestation of the brain tumor progression in animals (3–4 weeks after intracranial tumor cells injection) peptides were i.v. injected and the peptides biodistribution was assessed employing IVIS in vivo Imaging System (PerkinElmer, USA). […]
Processing of the obtained luminescence images was performed using Living Image 4.7.4 firmware. The luminescence signals were read from the color maps of the obtained images by selecting the ROI contour (region of interest). […]

[2] = tested on: normal brain tissues; test: Ex vivo staining of normal brain tissue from patients with epilepsy; design: species or system human; details: tissues obtained intraoperatively from patients with epilepsy (n=2)
Method: For evaluation of targeting properties of RAS70 peptide in the non-tumorous brain tissues patient-derived samples obtained intraoperatively from patients with drug-resistant epilepsy underwent temporal resection (n=2) were employed.
Small pieces of brain tissue (50-100 mm³) were taken from patients or animals during surgery. The resulting material was washed three times in a PBS solution at room temperature and then stained, gently shaking, for 1 hour with one of the following combinations of dyes: a mixture of Hoechst 33342 (0.1 μg/mL) [Invitrogen, USA], monoclonal antibodies against Hsp70 conjugated with FITC, and RAS70 conjugated with Cy5; a mixture of Hoechst 33342 (0.1 μg/mL), LumiTracker® Mito Green FM [Lumiprobe, Russia], and TKD/NGL-RGD/RAS70 conjugated with sCy5. […] Hoechst 33342 fluorescence was excited with a 405 nm laser and recorded in the range 410 to 550 nm; Hsp70-FITC and Mito Green fluorescence were excited with a 488 nm laser and recorded in the range 495 to 550 nm; and Cy5 fluorescence was excited with a 633 nm laser and recorded in the range 635 to 750 nm. […]
To detect peptide localization, the biopsy material was additionally stained with a mitochondrial marker MitoGreen and anti-Hsp70 antibodies (SPA-810). […] Additionally, we assessed the depth of the RAS70-sCy3/sCy5 penetration into the tumor tissues […]. […]

[3] = tested on: GL261 cells (lower chamber; HUVEC and astrocytes barrier)
Method: Then, a peptide labeled with a fluorescent label was introduced into the upper chamber and co-incubation was carried out for 12, 24 and 36 hours. At the end of the incubation, the tumor cells were washed with cold phosphate-buffered saline (PBS) and fixed with a 4% solution of paraformaldehyde in PBS. Nuclei were stained with 4’,6-diamidino-2-phenylindole (DAPI). Fluorescent images were obtained using a Leica TCS SP8 confocal microscope (Leica, Germany). To avoid possible cross-interference of different fluorochromes, images for DAPI and FITC were obtained using a sequential sample scanning method. Fluorescently labeled cells were counted in the lower chamber. To estimate the mHsp70-mediated uptake of chaperone-targeted peptides tumor cells prior to incubation were pre-treated with anti-Hsp70 monoclonal antibodies SPA-810 (1:250, Stressgen) and SPA-815 (1:250 Stressgen). To exclude integrin (αvβ3, αvβ5)-mediated penetration of RAS70 tumor cells prior to incubation with peptides were pre-treated with anti- αvβ3 (1:200 clone LM609, ZMS1030, Sigma-Aldrich, USA), -αvβ5 (1:200 clone P1F6, MAB1961Z, Sigma-Aldrich, USA) monoclonal antibodies.
Then, a peptide labeled with a fluorescent dye (FITC) was introduced into the upper chamber and co-incubation was carried out for 12, 24 and 36 hours. At the end of the incubation, the tumor cells were washed with cold phosphate-buffered saline (PBS) and fixed with a 4% solution of paraformaldehyde in PBS. Nuclei were stained with 4’,6-diamidino-2-phenylindole (DAPI).
Data from 3 independent experiments are presented as M ± SE. […] Data from 3 independent experiments are presented as M ± SE. ** p < 0.01 for testing mean expression levels.

[4] = tested on: C6, GL261, and T98G cells; test: MTT test, overall statement for all cell lines studied; details: fluorescently labeled peptides, 7.5, 75, 750 µg/mL, 24, 48 and 72 hours
Method: 3-(4,5-dimethylthiazol-2-yl)-2,5-diphenyltetrazolium bromide (MTT) assay was performed to evaluate the cytotoxic effect of TKD-sCy5, RAS70-sCy5, and NGL-RGD-sCy5 peptides. The C6, GL261, and T98G cells were seeded in 96-well plates (Thermo Fisher Scientific, Waltham, USA) at concentration of 5*10^3 cells in 100 µL per well, plates were incubated at 37°C in 5% CO2. After 24 hours, peptides were added to the culture medium for final concentration of 7.5, 75, and 750 μg/mL; plates were incubated for 24, 48 and 72 hours. […] At the end of the incubation period, 1 mg/mL MTT solution was added for 4 hours and dissolved with DMSO. The absorbance was measured at 570 nm using Varioskan LUX Multimode Microplate Reader (Thermo Fisher Scientific, Waltham, USA).
Subsequently, we analyzed the cytotoxic effect of the peptides (RAS70, TKD, NGL, NGL-RGD) using the MTT test at various peptides concentrations (7.5, 75, 750 µg/mL) and co-incubation times of 24, 48 and 72 hours.

CC(C)C[C@H](NC(=O)[C@H](CC(C)C)NC(=O)[C@H](CC(N)=O)NC(=O)[C@H](CC(N)=O)NC(=O)[C@H](CC(=O)O)NC(=O)[C@H](CCCCN)NC(=O)[C@@H](N)[C@@H](C)O)C(=O)NCC(=O)N[C@@H](CCCNC(=N)N)C(=O)N[C@@H](Cc1ccccc1)C(=O)N[C@@H](CCC(=O)O)C(=O)N[C@@H](CC(C)C)C(=O)N[C@@H](CO)C(=O)NCC(=O)NCCC(=O)N[C@@H](CCCNC(=N)N)C(=O)NCC(=O)N[C@@H](CC(=O)O)C(=O)O [RAS70]
presence in normal brain tissue of animals [1]: non-specific presence of the RAS70 in blood vessel but not in normal brain cells | rank order of organ accumulation (biodistribution) ([1]; iv): kidney > liver > small intestine > lungs | localization in normal brain tissue [2]: no tissue-specific localization of RAS70 was detected | fluorescently labeled tumor cells in the lower chamber [3]: 553 ± 61 cells

CC(C)C[C@H](NC(=O)[C@H](CC(C)C)NC(=O)[C@H](CC(N)=O)NC(=O)[C@H](CC(N)=O)NC(=O)[C@H](CC(=O)O)NC(=O)[C@H](CCCCN)NC(=O)[C@@H](N)[C@@H](C)O)C(=O)NCC(=O)N[C@@H](CCCNC(=N)N)C(=O)N[C@@H](Cc1ccccc1)C(=O)N[C@@H](CCC(=O)O)C(=O)N[C@@H](CC(C)C)C(=O)N[C@@H](CO)C(=O)NCC(=O)O [TKD]
cytotoxic effect (MTT test) [4]: did not reveal the toxic effect
